Laboratory results from ChEMBL document CHEMBL5233241, “A medicinal chemistry perspective of drug repositioning: Recent advances and challenges in drug discovery” (Eur J Med Chem, 2020).
pEC50, pIC50, pKi: −log10 of the molar value. Structures can show the parent of a compound that is named as a salt.

How the values were obtained:
[1] = target: T1, Tyrosinase (Agaricus bisporus, UniProt O42713); assay: Inhibition of mushroom tyrosinase
T1 sequence (O42713 whole entry): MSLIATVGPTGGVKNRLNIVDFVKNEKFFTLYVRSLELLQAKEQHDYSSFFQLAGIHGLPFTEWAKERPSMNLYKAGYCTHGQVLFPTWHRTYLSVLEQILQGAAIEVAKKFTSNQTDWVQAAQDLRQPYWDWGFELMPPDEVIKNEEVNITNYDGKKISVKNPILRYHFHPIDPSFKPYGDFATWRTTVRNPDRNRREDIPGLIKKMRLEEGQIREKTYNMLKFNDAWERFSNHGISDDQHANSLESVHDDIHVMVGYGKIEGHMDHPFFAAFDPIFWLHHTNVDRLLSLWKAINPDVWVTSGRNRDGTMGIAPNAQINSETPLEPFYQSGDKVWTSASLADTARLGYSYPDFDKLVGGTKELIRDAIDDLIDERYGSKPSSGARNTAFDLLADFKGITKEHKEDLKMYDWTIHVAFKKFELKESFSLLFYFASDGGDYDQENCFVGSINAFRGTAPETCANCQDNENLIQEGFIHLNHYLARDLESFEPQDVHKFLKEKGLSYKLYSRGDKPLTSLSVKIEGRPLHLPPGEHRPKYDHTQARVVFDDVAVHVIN

[2] = Cytotoxicity against human Huh-7 cells; type: toxicity, cell-based
[3] = system: Middle East respiratory syndrome-related coronavirus; assay: Antiviral activity against MERS-CoV/KOR/KNIH/002_05_2015 infected in human Huh-7 cells assessed as reduction in virus-induced cytopathic effect incubated for 3 days by CellTiter 96 aqueous one solution cell proliferation assay; type: functional, organism-based; conditions: KOR/KNIH/002_05_2015, Huh-7, 72 h
[4] = system: B16-F10; assay: Inhibition of melanin production in mouse B16-F10 cells assessed as reduction in melanin content at 50 uM relative to control; type: functional
[5] = system: Plasmodium; assay: Antimalarial activity against Plasmodium; type: functional, organism-based
[6] = system: Plasmodium falciparum; assay: Antimalarial activity against Plasmodium falciparum W2; type: functional, organism-based
[7] = Inhibition of Wnt signalling in HEK293T cells; type: cell-based; conditions: Homo sapiens, HEK-293T
[8] = Inhibition of Wnt signalling in human BT-20 cells; type: cell-based
[9] = system: Middle East respiratory syndrome-related coronavirus; assay: Antiviral activity against MERS-CoV isolate EMC/2012 infected in human Huh-7 cells assessed as reduction in virus-induced cytopathic effect incubated for 2 days by MTS assay; type: functional, organism-based; conditions: EMC/2012, Huh-7, 48 h
[10] = system: Mus musculus; assay: Anti-alzheimer activity against old APP/PS1 mouse model assessed as reduction in amyloid beta (1 to 40 residues) level at 100 mg/kg, po administered daily and measured for 14 days; type: functional; parameters: scale not given: the % may be the effect or the level left; conditions: time 14 day
[11] = system: Mus musculus; assay: Anti-alzheimer activity against old APP/PS1 mouse model assessed as reduction in amyloid beta (1 to 42 residues) level at 100 mg/kg, po administered daily and measured for 14 days; type: functional; parameters: scale not given: the % may be the effect or the level left; conditions: time 14 day
[12] = system: Mus musculus; assay: Anti-alzheimer activity against APP/PS1 mouse model assessed as reduction in insoluble amyloid beta level at 100 mg/kg, po administered daily and measured for 90 days; type: functional; parameters: scale not given: the % may be the effect or the level left; conditions: time 90 day
[13] = system: Mus musculus; assay: Anti-alzheimer activity against young APP/PS1 mouse model assessed as reduction in amyloid beta (1 to 40 residues) level at 100 mg/kg, po administered daily and measured for 14 days; type: functional; parameters: scale not given: the % may be the effect or the level left; conditions: time 14 day
[14] = system: Mus musculus; assay: Anti-alzheimer activity against young APP/PS1 mouse model assessed as reduction in amyloid beta (1 to 42 residues) level at 100 mg/kg, po administered daily and measured for 14 days; type: functional; parameters: scale not given: the % may be the effect or the level left; conditions: time 14 day
[15] = Inhibition of melanin production in mouse B16 cells assessed as reduction in melanin content at up to 20 uM relative to control; type: functional
[16] = system: SARS-CoV; assay: Antiviral activity against SARS-CoV; type: functional, organism-based; conditions: Severe acute respiratory syndrome-related coronavirus
[17] = system: Human coronavirus 229E; assay: Antiviral activity against hCoV-229E; type: functional, organism-based
[18] = system: Dengue virus; assay: Antiviral activity against DENV assessed as inhibition of viral replication relative to control; type: functional
[19] = system: Human coronavirus 229E; assay: Antiviral activity against hCoV-229E expressing GFP infected in human Huh-7 cells assessed as reduction in virus-induced cytopathic effect incubated for 24 hrs by MTS assay; type: functional, organism-based; conditions: Huh-7, 24 h
[20] = system: SARS-CoV; assay: Antiviral activity against SARS-CoV isolate Frankfurt-1 infected in Vero E6 cells assessed as reduction in virus-induced cytopathic effect incubated for 3 days by MTS assay; type: functional, organism-based; conditions: Severe acute respiratory syndrome-related coronavirus, Frankfurt-1, Vero C1008, 72 h
[21] = Cytotoxicity against human COV318 cells incubated for 120 hrs by SRB assay; type: functional, cell-based; conditions: COV318, 120 h
[22] = Cytotoxicity against human OVSAHO cells incubated for 72 hrs by SRB assay; type: functional, cell-based
[23] = Cytotoxicity against human COV362 cells incubated for 120 hrs by SRB assay; type: functional, cell-based; conditions: COV362, 120 h
[24] = system: OVCAR-3; assay: Cytotoxicity against human OVCAR-3 cells incubated for 72 hrs by SRB assay; type: functional, cell-based; conditions: OVCAR-3, 72 h
[25] = system: OVCAR-4; assay: Cytotoxicity against human OVCAR-4 cells incubated for 72 hrs by SRB assay; type: functional, cell-based; conditions: OVCAR-4, 72 h
[26] = system: Mus musculus; assay: Anti-alzheimer activity against APP/PSEN1 transgenic mouse model assessed as fold reduction in amyloid beta plaques at 10 mg/kg administered intranasally every other day for 2 months; type: functional; conditions: route nas, 1460 h

Sc1ncnc2nc[nH]c12 [MERCAPTOPURINE ANHYDROUS]
pKi [1]: 4.80

CC(=O)c1ccc2c(c1)N(CCCN1CCN(CCO)CC1)c1ccccc1S2 [ACETOPHENAZINE]
CC50 [2]: 23.6 µM | pEC50 [3]: 4.95

OC[C@H]1O[C@@H](n2cnc3c(S)ncnc32)[C@H](O)[C@@H]1O [THIOINOSINE]
pKi [1]: 5.10

Cn1cc[nH]c1=S [METHIMAZOLE]
pIC50 [1]: 3.94

Nc1nc2nc[nH]c2c(=S)[nH]1 [THIOGUANINE]
pKi [1]: 4.28 | inhibition at 50 µM [4]: 57%

O=c1cc[nH]c(=S)[nH]1 [THIOURACIL]
pIC50 [1]: 3.89

CCN(CC)CCOc1ccc(/C(=C(/Cl)c2ccccc2)c2ccccc2)cc1 [ENCLOMIPHENE CITRATE]
pIC50 [5]: 6.66

COc1ccc(-c2nc(-c3cc(C(F)(F)F)cc(C(F)(F)F)c3)n(Cc3ccc(C(N)=O)cc3)c2-c2ccc(OC)cc2)cc1
pEC50 [6]: 5.35

CC(=O)Nc1ccc(/C=N/NC(N)=S)cc1 [AMITHIOZONE]
pIC50 [1]: 4.85

Cn1cnc([N+](=O)[O-])c1Sc1ncnc2nc[nH]c12 [AZATHIOPRINE]
pKi [1]: < 3.00

O=C(c1ccc(OCCN2CCCCC2)cc1)c1c(-c2ccc(O)cc2)sc2cc(O)ccc12 [RALOXIFENE HYDROCHLORIDE]
pIC50 [5]: > 6.30

CC(C)/N=c1\cc2n(-c3ccc(Cl)cc3)c3ccccc3nc-2cc1Nc1ccc(Cl)cc1 [CLOFAZIMINE]
pIC50 [7]: 5.22 | pIC50 [8]: 5.15

Cc1cccc(C)c1OCC(=O)N[C@@H](Cc1ccccc1)[C@@H](O)C[C@H](Cc1ccccc1)NC(=O)[C@H](C(C)C)N1CCCNC1=O [LOPINAVIR]
pEC50 [9]: 5.10

CN1CCC[C@@H]1CCO[C@](C)(c1ccccc1)c1ccc(Cl)cc1 [CLEMASTINE FUMARATE]
pIC50 [5]: 5.66

COc1ccc2c(c1)N(C[C@H](C)CN(C)C)c1ccccc1S2 [LEVOMEPROMAZINE]
CC50 [2]: 24.5 µM | pEC50 [3]: 5.60

CCOC(=O)n1ccn(C)c1=S [CARBIMAZOLE]
pIC50 [1]: 3.73

C=C(c1ccc(C(=O)O)cc1)c1cc2c(cc1C)C(C)(C)CCC2(C)C [BEXAROTENE]
Activity [10]: 25% | Activity [11]: 25% | Activity [12]: 30% | Activity [13]: 25% | Activity [14]: 25%

COc1ccc2[nH]c([S@@+]([O-])Cc3ncc(C)c(OC)c3C)nc2c1
pIC50 [5]: 6.54

CCCc1cc(=O)[nH]c(=S)[nH]1 [PROPYLTHIOURACIL]
pIC50 [1]: 3.77

OCCOCCN1CCN(C(c2ccccc2)c2ccc(Cl)cc2)CC1 (stereo unspecified) [HYDROXYZINE]
CC50 [2]: > 50 µM | pEC50 [3]: 4.84

Cc1cc(=O)[nH]c(=S)[nH]1 [METHYLTHIOURACIL]
pIC50 [1]: 3.85

N=C(N)N/N=C1C=C/C(=N\NC(N)=S)C=C\1 [AMBAZONE]
inhibition (INH) [15]: 20% | pIC50 [1]: 4.82

COc1ccc2[nH]c([S+]([O-])Cc3ncc(C)c(OC)c3C)nc2c1 (stereo unspecified) [OMEPRAZOLE]
pIC50 [5]: > 6.00

CN(C)CC/C=C1\c2ccccc2CSc2ccccc21 [DOTHIEPIN HYDROCHLORIDE]
CC50 [2]: 28.9 µM | pEC50 [3]: 5.47

N=C(N)c1ccc(OCCCCCOc2ccc(C(=N)N)cc2)cc1
pIC50 [5]: > 6.30

CN1CCN(CCOc2cc(OC3CCOCC3)c3c(Nc4c(Cl)ccc5c4OCO5)ncnc3c2)CC1 [SARACATINIB]
pEC50 [16]: 5.62 | CC50 [2]: > 50 µM | pEC50 [17]: 5.29

CCN(CC)Cc1cc(Nc2ccnc3cc(Cl)ccc23)ccc1O
pEC50 [3]: 5.68

COc1ccc(C2=NC(c3ccc(Cl)cc3)C(c3ccc(Cl)cc3)N2C(=O)N2CCNC(=O)C2)c(OC(C)C)c1 (stereo unspecified)
CC50 [2]: 26.8 µM | pEC50 [3]: 4.43

C=C[C@H]1CN2CC[C@H]1C[C@H]2[C@H](O)c1ccnc2ccc(OC)cc12 [QUININE]
inhibition (INH) [18]: 80%

CN1CCN(c2nc(C3=C(c4c[nH]c5ccccc45)C(=O)NC3=O)c3ccccc3n2)CC1 [SOTRASTAURIN]
CC50 [2]: > 50 µM | pEC50 [3]: 5.01

CN(C)C(=O)C(CCN1CCC(O)(c2ccc(Cl)cc2)CC1)(c1ccccc1)c1ccccc1 [LOPERAMIDE]
pEC50 [19]: 5.40 | pEC50 [9]: 5.32 | pEC50 [20]: 5.23

C/C=C/C[C@@H](C)[C@@H](O)[C@H]1C(=O)N[C@@H](CC)C(=O)N(C)CC(=O)N(C)[C@@H](CC(C)C)C(=O)N[C@@H](C(C)C)C(=O)N(C)[C@@H](CC(C)C)C(=O)N[C@@H](C)C(=O)N[C@H](C)C(=O)N(C)[C@@H](CC(C)C)C(=O)N(C)[C@@H](CC(C)C)C(=O)N(C)[C@@H](C(C)C)C(=O)N1C [CYCLOSPORINE]
pIC50 [5]: 5.77

CN(C)CCCN1c2ccccc2Sc2ccc(Cl)cc21 [CHLORPROMAZINE]
pEC50 [19]: 5.60 | pEC50 [9]: 5.31 | pEC50 [20]: 5.06

C[C@]12C=CC(=O)C=C1CC[C@@H]1[C@@H]2[C@@H](O)C[C@@]2(C)[C@H]1CC[C@]2(O)C(=O)CO [PREDNISOLONE]
pIC50 [21]: 5.96 | pIC50 [22]: 5.96 | pIC50 [23]: 5.96 | pIC50 [24]: 5.96 | pIC50 [25]: 5.96

CCCCc1nc(Cl)c(CO)n1Cc1ccc(-c2ccccc2-c2nnn[nH]2)cc1 [LOSARTAN]
fold change (FC) [26]: 3.7

CCCc1nc2c(C)cc(-c3nc4ccccc4n3C)cc2n1Cc1ccc(-c2ccccc2C(=O)O)cc1
pIC50 [5]: 7.60

CCN(CC)CCCC(C)Nc1ccnc2cc(Cl)ccc12 (stereo unspecified) [CHLOROQUINE]
pEC50 [9]: 5.52 | pEC50 [20]: 5.39
